Source: patent US6428971B1, “Teichoic acid enzymes and assays” (priority 1996, dated 2002)

B1: TAP: recombinant B. subtilis rodC (tagF) gene product overexpressed in E. coli DH10B/pBSRODC1, SEQ ID NO 2 with alanine to valine change (protein)
chain: MSLVVDTNKRKQKGKSFYTEEQKKVMIENTVIKCILKSLKNNLGSLELLISIDSEHQFLEDYQLFLKLKERRSGTESEFPLQNTGSLEYKTEINAHVLPMPVEMGQTYDFYVEFRKKYEDAEQEPLLKRLSAEVNSIERAFHVDQTTELLILPYTTDKGNFSIKVKREAKIIRFDQIEISSEEISITGYAGYLSSENQYRIKNLNLILKKGGETPIEEKFPIKLERKTHGLENMRADGFVPELYDFEVKVPLKEIPFSNEKRYVYRLFMEYICNDDEGTDIQFNSTALVLGDRKNKLKGLVSIIKTNNAPVRYEVFKKKKKQTLGIRVNDYSLKTRMKYFIKGKKKRLVSKIKKITKMRNKLITKTYKSLFMMASRMPVKRKTVIFESFNGKQYSCNPRAIYEYMRENHPEYKMYWSVNKQYSAPFDEKGIPYINRLSLKWLFAMARAEYWVVNSRLPLWIPKPSHTTYLQTWHGTPLKRLAMDMEEVHMPGTNTKKYKRNFIKEASNWDYLISPNGYSTEIFTRAFQFNKTMIESGYPRNDFLHNDNNEETISLIKSRLNIPRDKKVILYAPTWRDDQFYAKGRYKFDLDLDLHQLRQELGNEYIVILRMHYLVAENFDLGPFEGFAYDFSAYEDIRELYMVSDLLITDYSSVFFDFANLKRPMLFFVPDIETYRDKLRGFYFDFEKEAPGPLVKTTEETIEAIKQISSPDYKLPVSFGPFYDKFCYLESGRSSEKVVNTVFKAE

What was measured:
[1] = target: T1, TAP (Bacillus subtilis, UniProt P13485, A616V); test: TAP enzyme assay (acid precipitation of radioactive lipoteichoic acid); assay type: biochemical, B. subtilis; details: alanine ester removed in 0.1M Tris-HCl pH 8.0, 24 hr, 37° C.
T1 construct: corresponds to a 2163 bp open reading frame beginning with ATG at bp 100 and ending with TAA at bp 2263; made in house; host or cells: E. coli DH10B / pBSRODC1 (pTrc99A vector); membrane preparation, 2M NaCl extract, High Q fraction
Procedure: (§1) The enzymatic activity of TAP was assayed using CDP[^3H]glycerol as the glycerolphosphate donor and B. subtilis lipoteichoic acid as the acceptor. If active, the recombinant TAP enzyme should lengthen lipoteichoic acid with radioactive glycerolphosphate monomers, producing acid precipitable radioactivity. […] Extraction of TAP from the E. coli membrane with 2 M NaCl produced an active TAP preparation that could be separated from the cell membrane by ultracentrifugation.
(§2) The method of Burger and Glaser was generally followed. Burger M M, Glaser L. “The synthesis of teichoic acids” J. Biol. Chem. (1964) vol. 239, pp. 3168-3177, incorporated by reference. A typical assay contained 1-100 μl of enzyme, 10 μl of lipoteichoic acid (1 mg/ml B. subtilis lipoteichoic acid [Sigma] in water), 25 μl of CDP[^3H]glycerol (10 mM CDPglycerol Specific Activity 8.8 μCi/μMole), and enough Buffer A to bring the total volume to 250 μl. The reaction was incubated at 37° C. for one hour, mixed with 80 μl of 3N perchloric acid, and placed on ice for 5 min. The acid treated sample was spotted on a GF/C filter and washed with 4×5 ml of 0.15 N perchloric acid before liquid scintillation counting. Control reactions lacking either lipoteichoic acid or CDP[^3H]glycerol were included as negative controls.
(§3) The method of Burger and Glaser was generally followed. […]

[2] = target: T2, TAP (Bacillus subtilis, UniProt P13485); test: as above; assay type: biochemical, B. subtilis; details: lipoteichoic acid from either B. subtilis, S. aureus, or E. faecalis
T2 construct: corresponds to a 2163 bp open reading frame beginning with ATG at bp 100 and ending with TAA at bp 2263; made in house; host or cells: E. coli DH10B / pBSRODC1 (pTrc99A vector); membrane preparation, 2M NaCl extract, High Q fraction
Procedure: as §1, §2, §3

[3] = Storage stability of the TAP enzyme; assay type: physicochemical; details: stored in ice

T2 sequence (P13485 26-746 A616V): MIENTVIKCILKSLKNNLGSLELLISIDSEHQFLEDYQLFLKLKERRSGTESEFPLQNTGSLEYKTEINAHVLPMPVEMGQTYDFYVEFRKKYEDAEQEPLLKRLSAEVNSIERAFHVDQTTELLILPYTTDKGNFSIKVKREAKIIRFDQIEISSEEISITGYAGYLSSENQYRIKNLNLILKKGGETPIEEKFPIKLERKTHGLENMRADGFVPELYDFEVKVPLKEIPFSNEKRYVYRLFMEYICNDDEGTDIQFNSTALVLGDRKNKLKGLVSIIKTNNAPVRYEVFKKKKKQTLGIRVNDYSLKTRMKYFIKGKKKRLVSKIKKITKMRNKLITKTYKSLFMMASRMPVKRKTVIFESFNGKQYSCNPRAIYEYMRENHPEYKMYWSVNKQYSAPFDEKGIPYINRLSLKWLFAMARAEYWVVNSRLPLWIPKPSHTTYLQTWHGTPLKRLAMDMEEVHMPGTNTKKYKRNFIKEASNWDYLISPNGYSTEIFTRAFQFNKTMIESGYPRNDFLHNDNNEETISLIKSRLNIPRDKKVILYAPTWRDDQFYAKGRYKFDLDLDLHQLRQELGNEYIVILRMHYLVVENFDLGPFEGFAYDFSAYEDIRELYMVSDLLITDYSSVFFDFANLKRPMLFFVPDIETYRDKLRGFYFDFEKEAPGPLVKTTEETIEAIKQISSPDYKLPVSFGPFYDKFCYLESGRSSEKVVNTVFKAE
T1 sequence (P13485 26-746 A616V): as above

| Molecule | effect of alanine removal from lipoteichoic acid on activity of the recombinant TAP enzyme [1] | acceptor of CDP[3H]glycerol (substrate for TAP) [2] | stability of the enzyme on storage [3] |
| --- | --- | --- | --- |
| lipoteichoic acid | improved activity | could serve as an acceptor |  |
| B1 |  |  | stable for two weeks |
